Reference: ChEMBL document CHEMBL1909046, “DrugMatrix in vitro pharmacology data”

How the values were obtained:
[1] = target: Beta-2 adrenergic receptor (Homo sapiens, UniProt P07550); test: DRUGMATRIX: Adrenergic beta2 radioligand binding (ligand: [3H] CGP-12177); format: cell membranes, CHO, Membrane; conditions: cho; Not Active = under 50% inhibition at 10 µM
[2] = target: Beta-1 adrenergic receptor (Homo sapiens, UniProt P08588); test: DRUGMATRIX: Adrenergic beta1 radioligand binding (ligand: [125I] Cyanopindolol); format: cell membranes, CHO-K1, Membrane; conditions: cho-k1; Not Active = under 50% inhibition at 10 µM
[3] = target: T1, Alpha-2A adrenergic receptor (Homo sapiens, UniProt P08913); format: cell membranes, Sf9, Membrane; conditions: sf9; further: in other assays of this panel Not Active means under 50% inhibition at 10 µM
T1 sequence (P08913 whole entry): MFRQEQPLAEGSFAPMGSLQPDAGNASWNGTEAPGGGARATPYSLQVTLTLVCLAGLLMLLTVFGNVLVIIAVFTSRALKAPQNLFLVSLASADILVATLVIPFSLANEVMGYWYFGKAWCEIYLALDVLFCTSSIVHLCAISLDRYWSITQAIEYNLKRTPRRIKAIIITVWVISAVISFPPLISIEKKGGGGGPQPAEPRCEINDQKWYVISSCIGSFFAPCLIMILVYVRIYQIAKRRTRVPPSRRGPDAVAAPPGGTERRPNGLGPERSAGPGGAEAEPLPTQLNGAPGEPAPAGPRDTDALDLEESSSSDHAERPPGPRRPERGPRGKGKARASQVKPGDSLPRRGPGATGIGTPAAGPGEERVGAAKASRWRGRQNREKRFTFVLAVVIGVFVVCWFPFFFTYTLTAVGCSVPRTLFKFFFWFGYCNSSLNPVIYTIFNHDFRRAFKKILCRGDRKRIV

[4] = target: 5-hydroxytryptamine receptor 4 (Cavia porcellus, UniProt O70528); format: cell membranes, Dunkin-Hartley, Striatum, Membrane; further: in other assays of this panel Not Active means under 50% inhibition at 10 µM
[5] = target: Mitogen-activated protein kinase 14 (Homo sapiens, UniProt Q16539); parameters: species or system Escherichia coli;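 further: inhibition of p38alpha enzyme activity in a biochemical kinase assay, with myelin basic protein serving as substrate; in other assays of this panel Not Active means under 50% inhibition at 10 µM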
[6] = target: Vascular endothelial growth factor receptor 1 (Homo sapiens, UniProt P17948); format: cell-based; conditions: huvec; further: in other assays of this panel Not Active means under 50% inhibition at 10 µM
[7] = DRUGMATRIX: Glutamate, NMDA, Phencyclidine radioligand binding (ligand: [3H] TCP); format: cell membranes, Rattus norvegicus, Wistar, Cerebral cortex, Membrane; conditions: Not Active = under 50% inhibition at 10 µM

Sequence of Vascular endothelial growth factor receptor 1 (P17948 whole entry): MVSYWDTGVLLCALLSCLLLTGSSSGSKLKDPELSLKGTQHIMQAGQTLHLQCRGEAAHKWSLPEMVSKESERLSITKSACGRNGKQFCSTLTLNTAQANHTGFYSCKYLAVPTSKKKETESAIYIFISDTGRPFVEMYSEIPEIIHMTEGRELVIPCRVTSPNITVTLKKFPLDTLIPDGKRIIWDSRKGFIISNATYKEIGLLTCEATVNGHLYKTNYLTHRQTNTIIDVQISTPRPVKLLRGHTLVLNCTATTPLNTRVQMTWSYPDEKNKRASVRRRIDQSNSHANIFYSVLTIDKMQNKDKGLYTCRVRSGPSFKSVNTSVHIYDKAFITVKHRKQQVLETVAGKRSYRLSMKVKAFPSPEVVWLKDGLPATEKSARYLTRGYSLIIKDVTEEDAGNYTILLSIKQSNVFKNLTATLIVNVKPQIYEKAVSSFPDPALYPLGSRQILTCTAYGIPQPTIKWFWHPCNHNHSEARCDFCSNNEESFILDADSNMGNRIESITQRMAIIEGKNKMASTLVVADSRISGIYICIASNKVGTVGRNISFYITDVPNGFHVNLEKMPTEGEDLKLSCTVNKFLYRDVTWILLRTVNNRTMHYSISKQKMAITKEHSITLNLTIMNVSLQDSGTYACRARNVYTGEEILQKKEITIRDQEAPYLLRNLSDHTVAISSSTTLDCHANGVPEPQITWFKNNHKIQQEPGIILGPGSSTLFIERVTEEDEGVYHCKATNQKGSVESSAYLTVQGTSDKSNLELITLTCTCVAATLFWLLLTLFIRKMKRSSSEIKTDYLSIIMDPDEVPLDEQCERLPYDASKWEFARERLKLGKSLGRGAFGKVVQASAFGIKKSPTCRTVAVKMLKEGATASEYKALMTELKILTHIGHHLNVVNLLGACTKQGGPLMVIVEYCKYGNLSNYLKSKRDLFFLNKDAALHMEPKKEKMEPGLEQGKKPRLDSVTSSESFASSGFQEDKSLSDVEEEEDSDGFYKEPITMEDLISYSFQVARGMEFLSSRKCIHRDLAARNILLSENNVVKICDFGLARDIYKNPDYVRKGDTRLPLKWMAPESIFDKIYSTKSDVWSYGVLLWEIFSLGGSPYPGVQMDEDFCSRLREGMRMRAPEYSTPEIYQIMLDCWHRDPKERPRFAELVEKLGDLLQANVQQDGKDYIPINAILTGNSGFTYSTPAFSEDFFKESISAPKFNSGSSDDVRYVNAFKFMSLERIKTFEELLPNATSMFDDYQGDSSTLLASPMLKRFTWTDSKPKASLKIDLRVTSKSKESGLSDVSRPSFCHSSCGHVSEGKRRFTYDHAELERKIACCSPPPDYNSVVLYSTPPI
Sequence of 5-hydroxytryptamine receptor 4 (O70528 whole entry): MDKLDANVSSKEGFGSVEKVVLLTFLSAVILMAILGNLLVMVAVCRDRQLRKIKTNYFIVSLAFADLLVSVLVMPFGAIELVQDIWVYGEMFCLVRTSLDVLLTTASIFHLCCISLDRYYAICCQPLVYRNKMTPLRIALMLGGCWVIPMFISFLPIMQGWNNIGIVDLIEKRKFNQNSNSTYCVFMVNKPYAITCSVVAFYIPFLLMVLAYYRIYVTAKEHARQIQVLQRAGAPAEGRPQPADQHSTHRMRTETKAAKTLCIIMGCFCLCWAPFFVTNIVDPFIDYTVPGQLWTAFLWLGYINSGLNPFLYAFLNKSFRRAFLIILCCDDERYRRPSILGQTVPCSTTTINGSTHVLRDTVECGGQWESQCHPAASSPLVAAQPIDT
Sequence of Mitogen-activated protein kinase 14 (Q16539 whole entry): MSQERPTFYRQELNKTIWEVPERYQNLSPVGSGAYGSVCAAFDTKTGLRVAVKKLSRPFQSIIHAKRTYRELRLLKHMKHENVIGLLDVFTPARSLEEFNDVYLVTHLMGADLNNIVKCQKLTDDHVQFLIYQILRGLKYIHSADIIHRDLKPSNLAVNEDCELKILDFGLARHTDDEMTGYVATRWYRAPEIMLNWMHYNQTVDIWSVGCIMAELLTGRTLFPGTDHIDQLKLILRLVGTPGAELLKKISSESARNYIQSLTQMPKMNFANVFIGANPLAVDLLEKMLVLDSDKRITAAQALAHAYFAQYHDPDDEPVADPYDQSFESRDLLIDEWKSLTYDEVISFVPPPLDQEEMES
Sequence of Beta-1 adrenergic receptor (P08588 whole entry): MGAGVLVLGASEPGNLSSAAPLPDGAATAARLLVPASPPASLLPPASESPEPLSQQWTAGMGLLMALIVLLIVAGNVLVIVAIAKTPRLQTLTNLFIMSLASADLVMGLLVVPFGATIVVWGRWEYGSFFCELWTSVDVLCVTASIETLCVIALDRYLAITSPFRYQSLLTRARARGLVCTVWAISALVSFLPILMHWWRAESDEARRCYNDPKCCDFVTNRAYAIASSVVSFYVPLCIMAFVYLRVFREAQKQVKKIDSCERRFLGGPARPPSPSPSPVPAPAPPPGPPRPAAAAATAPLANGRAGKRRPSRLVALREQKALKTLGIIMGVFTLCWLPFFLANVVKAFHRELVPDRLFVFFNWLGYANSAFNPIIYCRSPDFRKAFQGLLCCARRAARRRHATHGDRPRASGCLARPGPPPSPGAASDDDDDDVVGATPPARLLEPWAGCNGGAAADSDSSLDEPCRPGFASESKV

CHROMIC CHLORIDE
Not Active: IC50 [1] | Ki [1] | IC50 [2] | Ki [2] | IC50 [3] | Ki [3] | IC50 [4] | Ki [4] | IC50 [5] | Ki [5] | IC50 [6] | Ki [6] | IC50 [7] | Ki [7]

COPPER(II) OXIDE
Not Active: IC50 [1] | Ki [1] | IC50 [2] | Ki [2] | IC50 [3] | Ki [3] | IC50 [4] | Ki [4] | IC50 [5] | Ki [5] | IC50 [6] | Ki [6] | IC50 [7] | Ki [7]

POVIDONE
Not Active: IC50 [1] | Ki [1] | IC50 [2] | Ki [2] | IC50 [3] | Ki [3] | IC50 [4] | Ki [4] | IC50 [5] | Ki [5] | IC50 [6] | Ki [6] | IC50 [7] | Ki [7]
